Measured values as given in article PMC11005723, “Development of Complementary Photo‐arginine/lysine to Promote Discovery of Arg/Lys hPTMs Interactomes” (Advanced Science, 2024).

Test system: HEK293T nuclear lysates
Test: SILAC‐based pull‐down proteomics H4K5me2/H4K5 (probes 7/5)
Type: binding, human
Conditions: for F6 log2 (H4K5me2/H4K5): run F6; for E6 log2 (H4K5me2/H4K5): run E6

With “probe 7: H4K5me2 peptide probe with photo‐arginine R(dz) and K(biotin) (SGRGKGGKGLGKGGK; photo-arginine R(dz) at 3; dimethyl-lysine at 5; K(biotin) at 15)” the “F6 log2 (H4K5me2/H4K5)” value (protein Q5SY16 NOL9) was 0.298, the “E6 log2 (H4K5me2/H4K5)” value (protein Q5UIP0 RIF1) was 0.1193 and the “F6 log2 (H4K5me2/H4K5)” value (protein Q5UIP0 RIF1) was -0.04241. For the same substance, the “E6 log2 (H4K5me2/H4K5)” value (protein Q5VZL5 ZMYM4) was 0.09551, the “F6 log2 (H4K5me2/H4K5)” value (protein Q5VZL5 ZMYM4) was -0.04431 and the “E6 log2 (H4K5me2/H4K5)” value (protein Q8NFW8 CMAS) was 0.141. The “F6 log2 (H4K5me2/H4K5)” value (protein Q8NFW8 CMAS) was 0.05465, the “E6 log2 (H4K5me2/H4K5)” value (protein Q8WYA6 CTNNBL1) was 0.1516 and the “F6 log2 (H4K5me2/H4K5)” value (protein Q8WYA6 CTNNBL1) was 0.456. For the same substance, the “E6 log2 (H4K5me2/H4K5)” value (protein Q9BRX2 PELO) was 0.1716, the “F6 log2 (H4K5me2/H4K5)” value (protein Q9BRX2 PELO) was 0.4162 and the “E6 log2 (H4K5me2/H4K5)” value (protein Q9BUF5 TUBB6) was 0.1331. The “F6 log2 (H4K5me2/H4K5)” value (protein Q9BUF5 TUBB6) was -0.5148, the “E6 log2 (H4K5me2/H4K5)” value (protein Q9BVA1 TUBB2B) was 0.166 and the “F6 log2 (H4K5me2/H4K5)” value (protein Q9BVA1 TUBB2B) was -0.2469. For the same substance, the “E6 log2 (H4K5me2/H4K5)” value (protein Q9BVJ6 UTP14A) was 0.05903, the “F6 log2 (H4K5me2/H4K5)” value (protein Q9BVJ6 UTP14A) was -0.461 and the “E6 log2 (H4K5me2/H4K5)” value (protein Q9BW71 HIRIP3) was 0.0877. The “F6 log2 (H4K5me2/H4K5)” value (protein Q9BW71 HIRIP3) was -0.01781, the “E6 log2 (H4K5me2/H4K5)” value (protein Q9BXP5 SRRT) was 0.141 and the “F6 log2 (H4K5me2/H4K5)” value (protein Q9BXP5 SRRT) was 0.1118. The “E6 log2 (H4K5me2/H4K5)” value (protein Q9H4L7 SMARCAD1) was 0.1459, the “F6 log2 (H4K5me2/H4K5)” value (protein Q9H4L7 SMARCAD1) was 0.07323 and the “E6 log2 (H4K5me2/H4K5)” value (protein Q9H5H4 ZNF768) was 0.1121. The “F6 log2 (H4K5me2/H4K5)” value (protein Q9H5H4 ZNF768) was 0.2152, the “E6 log2 (H4K5me2/H4K5)” value (protein Q9NPJ6 MED4) was 0.1455 and the “F6 log2 (H4K5me2/H4K5)” value (protein Q9NPJ6 MED4) was 0.1113. For the same substance, the “E6 log2 (H4K5me2/H4K5)” value (protein Q9NRL2 BAZ1A) was 0.163, the “F6 log2 (H4K5me2/H4K5)” value (protein Q9NRL2 BAZ1A) was 0.1532 and the “E6 log2 (H4K5me2/H4K5)” value (protein Q9NX58 LYAR) was 0.1556. The “F6 log2 (H4K5me2/H4K5)” value (protein Q9NX58 LYAR) was 0.3557, the “E6 log2 (H4K5me2/H4K5)” value (protein Q9P013 CWC15) was 0.1308 and the “F6 log2 (H4K5me2/H4K5)” value (protein Q9P013 CWC15) was 0.1373. For the same substance, the “E6 log2 (H4K5me2/H4K5)” value (protein Q9P258 RCC2) was 0.1054, the “F6 log2 (H4K5me2/H4K5)” value (protein Q9P258 RCC2) was 0.04172 and the “E6 log2 (H4K5me2/H4K5)” value (protein Q9UFW8 CGGBP1) was 0.1502. For the same substance, the “F6 log2 (H4K5me2/H4K5)” value (protein Q9UFW8 CGGBP1) was 0.1918, the “E6 log2 (H4K5me2/H4K5)” value (protein Q9ULV4 CORO1C) was 0.1506 and the “F6 log2 (H4K5me2/H4K5)” value (protein Q9ULV4 CORO1C) was 0.2392. For the same substance, the “E6 log2 (H4K5me2/H4K5)” value (protein Q9Y5Q8 GTF3C5) was 0.07771, the “F6 log2 (H4K5me2/H4K5)” value (protein Q9Y5Q8 GTF3C5) was -0.06295 and the “E6 log2 (H4K5me2/H4K5)” value (protein Q9Y5Q9 GTF3C3) was 0.06434. The “F6 log2 (H4K5me2/H4K5)” value (protein Q9Y5Q9 GTF3C3) was 0.04559, the “E6 log2 (H4K5me2/H4K5)” value (protein Q9Y6G9 DYNC1LI1) was 0.06739 and the “F6 log2 (H4K5me2/H4K5)” value (protein Q9Y6G9 DYNC1LI1) was 0.07842. The “E6 log2 (H4K5me2/H4K5)” value (protein Q9Y383 LUC7L2) was 0.1112, the “F6 log2 (H4K5me2/H4K5)” value (protein Q9Y383 LUC7L2) was 0.1004 and the “E6 log2 (H4K5me2/H4K5)” value (protein Q69YN4 KIAA1429) was 0.07633. The “F6 log2 (H4K5me2/H4K5)” value (protein Q69YN4 KIAA1429) was 1.095, the “E6 log2 (H4K5me2/H4K5)” value (protein Q86UV5 USP48) was 0.08539 and the “F6 log2 (H4K5me2/H4K5)” value (protein Q86UV5 USP48) was 0.1516. For the same substance, the “E6 log2 (H4K5me2/H4K5)” value (protein Q86VP6 CAND1) was 0.1189, the “F6 log2 (H4K5me2/H4K5)” value (protein Q86VP6 CAND1) was 0.1916 and the “E6 log2 (H4K5me2/H4K5)” value (protein Q96I24 FUBP3) was 0.09267. The “F6 log2 (H4K5me2/H4K5)” value (protein Q96I24 FUBP3) was 0.003553, the “E6 log2 (H4K5me2/H4K5)” value (protein Q96RL1 UIMC1) was 0.1095 and the “F6 log2 (H4K5me2/H4K5)” value (protein Q96RL1 UIMC1) was 0.3246. The “E6 log2 (H4K5me2/H4K5)” value (protein Q96SI9 STRBP) was 0.1111, the “F6 log2 (H4K5me2/H4K5)” value (protein Q96SI9 STRBP) was -0.1086 and the “E6 log2 (H4K5me2/H4K5)” value (protein Q00839 HNRNPU) was 0.1593. The “F6 log2 (H4K5me2/H4K5)” value (protein Q00839 HNRNPU) was 0.1015, the “E6 log2 (H4K5me2/H4K5)” value (protein Q06265 EXOSC9) was 0.08559 and the “F6 log2 (H4K5me2/H4K5)” value (protein Q06265 EXOSC9) was 0.2199. For the same substance, the “E6 log2 (H4K5me2/H4K5)” value (protein Q08211 DHX9) was 0.1119, the “F6 log2 (H4K5me2/H4K5)” value (protein Q08211 DHX9) was 0.3522 and the “E6 log2 (H4K5me2/H4K5)” value (protein Q12888 TP53BP1) was 0.1736. For the same substance, the “F6 log2 (H4K5me2/H4K5)” value (protein Q12888 TP53BP1) was 0.06404, the “E6 log2 (H4K5me2/H4K5)” value (protein Q13409 DYNC1I2) was 0.06369 and the “F6 log2 (H4K5me2/H4K5)” value (protein Q13409 DYNC1I2) was -0.3262. For the same substance, the “E6 log2 (H4K5me2/H4K5)” value (protein Q13838 DDX39B) was 0.1273, the “F6 log2 (H4K5me2/H4K5)” value (protein Q13838 DDX39B) was 0.2575 and the “E6 log2 (H4K5me2/H4K5)” value (protein Q14247 CTTN) was 0.1014. For the same substance, the “F6 log2 (H4K5me2/H4K5)” value (protein Q14247 CTTN) was -0.09702, the “E6 log2 (H4K5me2/H4K5)” value (protein Q14498 RBM39) was 0.177 and the “F6 log2 (H4K5me2/H4K5)” value (protein Q14498 RBM39) was 0.352. For the same substance, the “E6 log2 (H4K5me2/H4K5)” value (protein Q14683 SMC1A) was 0.1403, the “F6 log2 (H4K5me2/H4K5)” value (protein Q14683 SMC1A) was 0.1731 and the “E6 log2 (H4K5me2/H4K5)” value (protein Q15007 WTAP) was 0.1397. For the same substance, the “F6 log2 (H4K5me2/H4K5)” value (protein Q15007 WTAP) was 0.4766, the “E6 log2 (H4K5me2/H4K5)” value (protein Q15029 EFTUD2) was 0.07001 and the “F6 log2 (H4K5me2/H4K5)” value (protein Q15029 EFTUD2) was 0.00906. The “E6 log2 (H4K5me2/H4K5)” value (protein Q15181 PPA1) was 0.1337, the “F6 log2 (H4K5me2/H4K5)” value (protein Q15181 PPA1) was 0.2844 and the “E6 log2 (H4K5me2/H4K5)” value (protein Q15366 PCBP2) was 0.119. For the same substance, the “F6 log2 (H4K5me2/H4K5)” value (protein Q15366 PCBP2) was 0.02194, the “E6 log2 (H4K5me2/H4K5)” value (protein Q15459 SF3A1) was 0.09759 and the “F6 log2 (H4K5me2/H4K5)” value (protein Q15459 SF3A1) was -0.03717. The “E6 log2 (H4K5me2/H4K5)” value (protein Q15637 SF1) was 0.06831, the “F6 log2 (H4K5me2/H4K5)” value (protein Q15637 SF1) was -0.04609 and the “E6 log2 (H4K5me2/H4K5)” value (protein Q15654 TRIP6) was 0.1136. For the same substance, the “F6 log2 (H4K5me2/H4K5)” value (protein Q15654 TRIP6) was 0.7606, the “E6 log2 (H4K5me2/H4K5)” value (protein Q16543 CDC37) was 0.09946 and the “F6 log2 (H4K5me2/H4K5)” value (protein Q16543 CDC37) was -0.01218. The “E6 log2 (H4K5me2/H4K5)” value (protein Q92769 HDAC2) was 0.1172, the “F6 log2 (H4K5me2/H4K5)” value (protein Q92769 HDAC2) was 0.07863 and the “E6 log2 (H4K5me2/H4K5)” value (protein Q92785 DPF2) was 0.1557. For the same substance, the “F6 log2 (H4K5me2/H4K5)” value (protein Q92785 DPF2) was 0.235, the “E6 log2 (H4K5me2/H4K5)” value (protein Q92945 KHSRP) was 0.0526 and the “F6 log2 (H4K5me2/H4K5)” value (protein Q92945 KHSRP) was 0.2777. For the same substance, the “E6 log2 (H4K5me2/H4K5)” value (protein Q99459 CDC5L) was 0.1274 and the “F6 log2 (H4K5me2/H4K5)” value (protein Q99459 CDC5L) was -0.0666.
